Assay results reported in ChEMBL document CHEMBL1201862, “PubChem BioAssay data set” (2004).
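Cells were grown in 96-well plates and exposed to each compound for 48 hours at five concentrations; endpoints were interpolated linearly between bracketing concentrations, or set to the highest concentration if not reached. Abbreviation: GI50, concentration required for 50% inhibition of growth.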 The source made the active and inactive calls. Cut-off read from the data, not from the text of the source: active = GI50 up to about 1.1 µM and inactive = higher.

Legend:
Assay in all cases: growth of human tumour cells (NCI), 48 h
SNB-19 = tested on: SNB-19
OVCAR-4 = tested on: OVCAR-4
CCRF-CEM = tested on: CCRF-CEM
RXF 393 = tested on: RXF 393
OVCAR-3 = tested on: OVCAR-3
UO-31 = tested on: UO-31
MCF7 = tested on: MCF7
HT-29 = tested on: HT-29
SW-620 = tested on: SW-620
K562 = tested on: K562
PC-3 = tested on: PC-3
OVCAR-8 = tested on: OVCAR-8
KM12 = tested on: KM12
SF-268 = tested on: SF-268
M14 = tested on: M14
NCI-H460 = tested on: NCI-H460
SK-MEL-2 = tested on: SK-MEL-2
SR = tested on: SR
LOX IMVI = tested on: LOX IMVI
ACHN = tested on: ACHN

Measured: GI50

CCC(=O)NCCc1c[nH]c2ccc(OC)cc12
inactive: SNB-19 > 100 µM | OVCAR-4 > 100 µM | CCRF-CEM > 100 µM | RXF 393 > 100 µM | OVCAR-3 > 100 µM | UO-31 > 100 µM | MCF7 > 100 µM | HT-29 > 100 µM | SW-620 > 100 µM | K562 > 100 µM | PC-3 > 100 µM | OVCAR-8 > 100 µM | KM12 > 100 µM | SF-268 > 100 µM | M14 > 100 µM | NCI-H460 > 100 µM | SK-MEL-2 > 100 µM | SR > 100 µM | LOX IMVI > 100 µM | ACHN > 100 µM

COC(=O)c1cc(C)n(CN(Cn2nc(C(=O)OC)cc2C)c2ccccc2)n1
inactive: SNB-19 > 100 µM | OVCAR-4 18.4 µM | CCRF-CEM 16 µM | RXF 393 20.1 µM | OVCAR-3 > 100 µM | UO-31 18.3 µM | MCF7 28.1 µM | HT-29 16.7 µM | SW-620 29.6 µM | K562 20 µM | PC-3 28.3 µM | OVCAR-8 19.4 µM | KM12 29.4 µM | SF-268 34 µM | M14 32.7 µM | NCI-H460 57.9 µM | SK-MEL-2 36.1 µM | SR 10 µM | LOX IMVI 7 µM | ACHN 18.7 µM

C=C1C(=O)OC2CC(C)C(C(O)CC(C)O)=CCC12 (stereo not given)
inactive: SNB-19 28.4 µM | OVCAR-4 19.7 µM | CCRF-CEM 1.71 µM | RXF 393 12.5 µM | OVCAR-3 9.62 µM | UO-31 16.2 µM | MCF7 13.9 µM | HT-29 13.6 µM | SW-620 10.4 µM | K562 14.1 µM | PC-3 21.6 µM | OVCAR-8 17.1 µM | KM12 18.6 µM | SF-268 14.3 µM | M14 15.2 µM | NCI-H460 18.9 µM | SK-MEL-2 16.3 µM | SR 8.13 µM | LOX IMVI 10.6 µM | ACHN 4.39 µM

CCCCCCCCC[n+]1cccc(C2C(C(=O)OCC)=C(C)NC(C)=C2C(=O)OCC)c1
inactive: SNB-19 3.45 µM | OVCAR-4 6.9 µM | CCRF-CEM 2.11 µM | RXF 393 2.03 µM | OVCAR-3 3.86 µM | UO-31 16.2 µM | MCF7 2.6 µM | HT-29 3.96 µM | SW-620 4.26 µM | K562 3.89 µM | PC-3 4.27 µM | OVCAR-8 3.39 µM | KM12 1.98 µM | SF-268 4.67 µM | M14 2.7 µM | NCI-H460 5.7 µM | SK-MEL-2 1.65 µM | SR 5.74 µM | LOX IMVI 2.92 µM | ACHN 14.6 µM

C=C1C(=O)C23CC1C[C@H](OC(C)=O)[C@H]2C1(C)C(OC(C)=O)C[C@H](O)C(C)(C)[C@H]1C(=O)[C@@H]3OC(C)=O (stereo not given in full)
inactive: SNB-19 18.5 µM | OVCAR-4 4.09 µM | CCRF-CEM 1.41 µM | RXF 393 3.09 µM | OVCAR-3 5.71 µM | UO-31 4.93 µM | MCF7 3.93 µM | HT-29 4.49 µM | SW-620 1.71 µM | K562 1.95 µM | PC-3 10.3 µM | OVCAR-8 2.95 µM | KM12 10.9 µM | SF-268 9.08 µM | M14 2.94 µM | NCI-H460 17.5 µM | SK-MEL-2 12.3 µM | SR 2.47 µM | LOX IMVI 3.4 µM | ACHN 4.98 µM
